The values that follow come from ChEMBL document CHEMBL1201862, “PubChem BioAssay data set” (2004).

Molecules are shown by their SMILES.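 Five compound concentrations were applied to cells in 96-well plates for 48 hours; endpoints were derived by simple linear interpolation of the resulting dose-response curve. GI50: concentration for 50% inhibition of growth.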 Calls of active or inactive are those of the source. No stated cut-off is given here; in the data, active = GI50 up to about 1.1 µM and inactive = higher.

Test systems include DU-145; HT-29; MOLT-4; OVCAR-8; NCI/ADR-RES; BT-549; CCRF-CEM; Hs-578T; SNB-19; OVCAR-4; CAKI-1; IGROV-1; SF-539; HCT-15; 786-0; UO-31; NCI-H460; EKVX; TK-10.
Holding throughout (test): growth of human tumour cells (NCI), 48 h

As to `Cc1ccc2c3c1O[C@H]1c4[nH]c5ccccc5c4C[C@@]4(O)[C@@H](C2)N(C)CC[C@]314`, the GI50 in the assay with DU-145 is 19.8 µM (inactive); in the assay on HT-29, 11.5 µM (inactive); with MOLT-4, 16.4 µM (inactive); with OVCAR-8, 18.6 µM (inactive); in the assay with NCI/ADR-RES, 17.8 µM (inactive); in the assay on BT-549, 16.4 µM (inactive). Moreover, the GI50 with CCRF-CEM was 18.3 µM (inactive); in the assay with Hs-578T, 0.474 µM (active); in the assay with SNB-19 it was 17.9 µM (inactive); in the assay on OVCAR-4 it was 16.9 µM (inactive); with CAKI-1, 17.3 µM (inactive); with IGROV-1 it was 18 µM (inactive). Moreover, the GI50 in the assay with SF-539 is 15.7 µM (inactive); in the assay with HCT-15, 17.2 µM; in the assay on 786-0, 15.6 µM (inactive); with UO-31, 13.7 µM (inactive).
As for `O=C1c2ccccc2C2(c3ccc(F)cc3)NCCN12` (stereo not given), the GI50 in the assay on DU-145, with HT-29, in the assay on MOLT-4, in the assay with OVCAR-8, in the assay with NCI/ADR-RES and in the assay with BT-549 was > 100 µM (inactive) throughout. The GI50 in the assay on CCRF-CEM, in the assay on Hs-578T, in the assay with SNB-19, in the assay with OVCAR-4, with NCI-H460 and in the assay on CAKI-1 was > 100 µM (inactive) throughout. The GI50 in the assay with EKVX is > 100 µM (inactive); with IGROV-1, > 100 µM (inactive); in the assay on HCT-15 it was above 100 µM; with 786-0, > 100 µM (inactive); in the assay on TK-10 it was > 100 µM (inactive); in the assay with UO-31, > 100 µM (inactive).
For the compound `CC(=O)OC1C2CCC3C(C)(O)C4CC(O)C(C)(C)C4(O)C(O)CC13CC2(C)O` (stereo not given), the GI50 in the assay with DU-145, in the assay with HT-29, in the assay with OVCAR-8, in the assay on NCI/ADR-RES, with BT-549 and in the assay on CCRF-CEM was > 100 µM (inactive) each time. For the same compound, the GI50 was > 100 µM (inactive) in the assay with Hs-578T; > 100 µM (inactive) in the assay with SNB-19; > 100 µM (inactive) in the assay with OVCAR-4; > 10 µM (inactive) in the assay with NCI-H460; > 100 µM (inactive) in the assay on CAKI-1; > 100 µM (inactive) in the assay on EKVX. In addition, the GI50 was > 100 µM (inactive) in the assay on IGROV-1; > 100 µM (inactive) with SF-539; above 100 µM with HCT-15; > 100 µM (inactive) with 786-0; > 100 µM (inactive) in the assay on TK-10; > 100 µM (inactive) in the assay on UO-31.
Consider `CN(C(=O)[C@@H](NC(=O)OC(C)(C)C)c1ccccc1)[C@H]1CCCC[C@@H]1N1CCCC1`, for which the GI50 with DU-145, in the assay with HT-29, in the assay on MOLT-4, in the assay on OVCAR-8, in the assay on NCI/ADR-RES and in the assay on BT-549 was > 100 µM (inactive) throughout. The GI50 with Hs-578T, with SNB-19, with OVCAR-4, with CAKI-1, in the assay on EKVX and in the assay on IGROV-1 was > 100 µM (inactive) each time. In addition, the GI50 was > 100 µM (inactive) with SF-539; above 100 µM in the assay on HCT-15; > 100 µM (inactive) in the assay with 786-0; > 100 µM (inactive) in the assay with TK-10; > 100 µM (inactive) in the assay on UO-31.
With `COC12OC3(C4OC41)C(C(=O)O[C@H]3CO[Si](C)(C)C(C)(C)C)C2S(=O)(=O)c1ccccc1` (stereo not given in full), the GI50 in the assay on DU-145 is > 4.65 µM (inactive); in the assay on MOLT-4, 2.25 µM (inactive); in the assay with OVCAR-8 it was 4.65 µM (inactive); in the assay on NCI/ADR-RES it was > 100 µM (inactive); in the assay with BT-549, > 49.9 µM (inactive); in the assay on CCRF-CEM, 0.597 µM (active). Also, the GI50 in the assay with Hs-578T was 4.65 µM (inactive); in the assay on NCI-H460, > 62.1 µM (inactive); with CAKI-1 it was 2.71 µM (inactive); with EKVX it was > 4.65 µM (inactive); with SF-539, > 100 µM (inactive); with HCT-15, 3.16 µM. Moreover, the GI50 is 2.89 µM (inactive) in the assay with 786-0, 4.06 µM (inactive) with TK-10 and > 4.65 µM (inactive) in the assay with UO-31.
Regarding `CC1CC2OC(=O)C(C)C2CC2(C)C(OC3OC(CO)C(O)C(O)C3O)OCCC12` (stereo not given), the GI50 is > 100 µM (inactive) in the assay on DU-145; > 100 µM (inactive) with HT-29; > 100 µM (inactive) in the assay on MOLT-4; > 100 µM (inactive) in the assay on OVCAR-8; > 100 µM (inactive) in the assay with NCI/ADR-RES; 15.5 µM (inactive) in the assay with BT-549. The GI50 in the assay with CCRF-CEM, with Hs-578T, in the assay with SNB-19, in the assay on OVCAR-4, in the assay with NCI-H460 and in the assay on CAKI-1 was > 100 µM (inactive) each time. Moreover, the GI50 in the assay with EKVX is > 100 µM (inactive); in the assay with IGROV-1, > 100 µM (inactive); with SF-539 it was > 100 µM (inactive); in the assay on HCT-15, above 100 µM; with 786-0, > 100 µM (inactive); in the assay with TK-10, > 100 µM (inactive).
`CC(CN(C)C)C(=O)c1ccccc1C(=O)O` (stereo not given): the GI50 was 30.2 µM (inactive) in the assay with DU-145; 38.7 µM (inactive) in the assay on HT-29; 20.4 µM (inactive) in the assay with MOLT-4; 30.3 µM (inactive) with OVCAR-8; 29.1 µM (inactive) in the assay with NCI/ADR-RES; 9.59 µM (inactive) in the assay with BT-549. The GI50 was 10.1 µM (inactive) in the assay with CCRF-CEM; 11.1 µM (inactive) with Hs-578T; 39.2 µM (inactive) in the assay with SNB-19; 35.5 µM (inactive) with OVCAR-4; 28.2 µM (inactive) in the assay with CAKI-1; 51.1 µM (inactive) in the assay with EKVX. The GI50 in the assay on IGROV-1 is 44 µM (inactive); with HCT-15, 31.6 µM; with 786-0, 24.2 µM (inactive); in the assay on TK-10 it was 19.5 µM (inactive); in the assay on UO-31, 47.2 µM (inactive).
As to `c1ccc(COCC23CCN(Cc4ccccc4)C(CC(OCc4ccccc4)C2)S3)cc1` (stereo not given), the GI50 is > 100 µM (inactive) in the assay on DU-145; 25.8 µM (inactive) with HT-29; 25.6 µM (inactive) in the assay with MOLT-4; 73.5 µM (inactive) with OVCAR-8; 83 µM (inactive) with NCI/ADR-RES; 42.6 µM (inactive) in the assay with BT-549. Moreover, the GI50 is 56.8 µM (inactive) in the assay on CCRF-CEM; 86.3 µM (inactive) with Hs-578T; 90.8 µM (inactive) in the assay with SNB-19; 53.1 µM (inactive) in the assay on OVCAR-4; 46.7 µM (inactive) in the assay on NCI-H460; 77.1 µM (inactive) with CAKI-1. Further, the GI50 in the assay with EKVX is 49 µM (inactive); in the assay on IGROV-1, > 100 µM (inactive); with SF-539, > 100 µM (inactive); with HCT-15, 28.6 µM; with 786-0, > 100 µM (inactive); in the assay on UO-31, 30.2 µM (inactive).
As for `Nc1n[n+]([O-])c2cnccc2[n+]1[O-]`, the GI50 in the assay with DU-145 is > 100 µM (inactive); in the assay with HT-29, 39.1 µM (inactive); with MOLT-4, 51.8 µM (inactive); in the assay with OVCAR-8, 31.3 µM (inactive); in the assay with NCI/ADR-RES it was 78 µM (inactive); in the assay on BT-549 it was 45.2 µM (inactive). Further, the GI50 was 8.28 µM (inactive) with CCRF-CEM; > 100 µM (inactive) with Hs-578T; > 100 µM (inactive) in the assay on SNB-19; 56.2 µM (inactive) in the assay on OVCAR-4; 34.8 µM (inactive) in the assay on NCI-H460; > 100 µM (inactive) in the assay on CAKI-1. The GI50 with IGROV-1 is 37.2 µM (inactive); in the assay on SF-539, 47.9 µM (inactive); in the assay on HCT-15 it was 32 µM; in the assay on 786-0, 70.6 µM (inactive); with TK-10, > 100 µM (inactive); in the assay on UO-31, > 100 µM (inactive).
In the case of `C#CCOC(=O)C(N)CCSC` (stereo not given), the GI50 in the assay with DU-145, in the assay on HT-29, with MOLT-4, in the assay on OVCAR-8, in the assay on NCI/ADR-RES and with BT-549 was > 100 µM (inactive) each time. The GI50 with CCRF-CEM, in the assay with Hs-578T, with CAKI-1, in the assay on EKVX, in the assay on IGROV-1 and with 786-0 was > 100 µM (inactive) throughout. Further, the GI50 with TK-10 and in the assay with UO-31 was > 100 µM (inactive) throughout.
On to `c1ccc2c(c1)cc1ccc3cccc4ccc2c1c34`, for which the GI50 in the assay with DU-145, with HT-29, with MOLT-4, in the assay with OVCAR-8, with NCI/ADR-RES and with BT-549 was > 100 µM (inactive) throughout. Besides, the GI50 with CCRF-CEM was > 100 µM (inactive); in the assay with Hs-578T, > 100 µM (inactive); in the assay with SNB-19 it was 81.1 µM (inactive); in the assay on NCI-H460, > 100 µM (inactive); in the assay on CAKI-1, > 100 µM (inactive); in the assay with EKVX it was 9.04 µM (inactive). Further, the GI50 with IGROV-1 is > 100 µM (inactive); in the assay with SF-539, > 100 µM (inactive); in the assay on HCT-15, 6.05 µM; in the assay with 786-0 it was > 100 µM (inactive); in the assay on TK-10, > 100 µM (inactive); in the assay on UO-31, > 100 µM (inactive).
Take `CC(C)(C)c1cc(OCc2nnc3sc(-c4ccc(Cl)cc4)nn23)c(Cl)cc1OCc1nnc2sc(-c3ccc(Cl)cc3)nn12`: the GI50 with DU-145 is 4.19 µM (inactive); in the assay on HT-29, 30.8 µM (inactive); in the assay with MOLT-4 it was 4.93 µM (inactive); in the assay with OVCAR-8, 3.93 µM (inactive); with NCI/ADR-RES, 2.01 µM (inactive); in the assay with BT-549, 4.7 µM (inactive). The GI50 in the assay with Hs-578T is 5.7 µM (inactive); in the assay on SNB-19 it was 3.59 µM (inactive); in the assay with OVCAR-4, 3.98 µM (inactive); in the assay on NCI-H460 it was 3.06 µM (inactive); in the assay with CAKI-1 it was 2.3 µM (inactive); with EKVX, 13.1 µM (inactive). Moreover, the GI50 in the assay on IGROV-1 was 3.82 µM (inactive); with SF-539, 2.57 µM (inactive); in the assay with HCT-15, 3.31 µM; with 786-0 it was 3.97 µM (inactive); in the assay with TK-10, 8.47 µM (inactive); with UO-31, 10.3 µM (inactive).
